Experimental data as given in article PMC10746280, “Bacterial efflux pump modulators prevent bacterial growth in macrophages and under broth conditions that mimic the host environment” (mBio, 2023).

Assays:
[1] = tested on: S. Typhimurium SL1344 (sifB::gfp) in RAW 264.7 macrophages; assay: SAFIRE macrophage assay: intracellular bacterial load (GFP signal within macrophages); type: cell-based, Salmonella enterica serotype Typhimurium
From the text: (§1) In SAFIRE, we used MATLAB software to count the number of macrophages that remain adherent and retain the red fluorescence of MitoTracker, an indicator of voltage across the mitochondrial inner membrane. MATLAB then calculates the signal from bacteria (green fluorescent protein [GFP]) that overlaps with macrophages, as defined by MitoTracker, to estimate bacterial load. […] For example, we observed that the 6-trifluoropyrimidin-2-yl group on the right-hand side of EPM35 is apparently toxic to macrophages. Non-toxic analogs that reduced bacterial load by at least 60% at 5 µM and 25 µM in SAFIRE, as compared with DMSO, progressed and were evaluated in SAFIRE across eight or more concentrations, ranging from 0.001 µM to 50 µM (n = 2). […] Each of the top 13 analogs had at least an eightfold increase in potency and were not toxic for macrophages at 50 µM in the SAFIRE assay (Fig. 1C).
(§2) As previously described ([18]), RAW 264.7 macrophages (between passages 1 and 6) were grown in complete Dulbecco’s modified Eagle’s medium (DMEM) to approximately 70% to 90% confluence, scraped, washed, resuspended, diluted to 5 × 10^4 in 100 µL, and seeded in black, 96-well, glass-bottomed plates (Brooks Life Sciences catalog number MGB096-1-2-LG-L) at 37°C with 5% CO2. Twenty-four hours later, bacteria grown overnight in LB were diluted into 50 µL phosphate buffered saline (PBS) and added to a final concentration of 1 × 10^7 S. Typhimurium SL1344 (sifB::gfp) per milliliter ([78]) for an approximate multiplicity of infection of 30 bacteria per macrophage cell. Forty-five minutes after bacterial addition, gentamicin (Sigma catalog number G1264) was added to a final concentration of 40 µg/mL to inhibit the growth of remaining extracellular bacteria. Two hours after infection, gentamicin-containing medium was removed and replaced with 200 µL fresh DMEM with compound or DMSO (Sigma catalog number 276855) to the stated final concentrations. At 17.5 h after infection, PBS containing MitoTracker Red CMXRos (Life Technologies catalog number M7512), a vital dye for mitochondrial electric potential, was added to a final concentration of 100 nM. At 18 h after infection, 16% paraformaldehyde was added to a final concentration of 4% and incubated at room temperature for 15 min. Cells were washed twice with PBS and stained for 20 min with 1 µM 4′,6-diamidino-2-phenylindole (DAPI), a vital dye for double-stranded DNA, and stored in 90% glycerol in PBS until imaging. Samples were imaged in six fields of view per well using a semiautomated Yokogawa CellVoyager CV1000 confocal scanner system with a 20×, 0.75-numerical aperture (NA) objective. A MATLAB algorithm calculated bacterial accumulation (GFP fluorescence) within macrophages, as defined by DAPI and MitoTracker Red. GFP^+ macrophage area was defined as the number of GFP-positive pixels per macrophage divided by the total number of pixels per macrophage, averaged across all macrophages in the field ([34]).

RAW 264.7 macrophages = assay: SAFIRE macrophage assay: host toxicity (adherent macrophage count, morphology); type: cell-based
From the text: as §1, §2

[2] = 5 uM, 'Toxic' given instead of a score
[3] = 25 uM, 'Toxic' given instead of a score
[4] = 5 uM compound, n=1, DMSO solvent control = 98, rifampicin 2 μg/mL = 65
[5] = 25 uM compound, n=1, DMSO solvent control = 98, rifampicin 2 μg/mL = 65
[6] = 5 uM compound, n=1, DMSO solvent control = 100
[7] = 25 uM compound, n=1, DMSO solvent control = 100

| SMILES | 5 uM Avg Antibacterial Score [1, 2] | 25 uM Avg Antibacterial Score [1, 3] | 5 uM Avg Cell # Score (RAW 264.7 macrophages; 5 uM) | 25 uM Avg Cell # Score (RAW 264.7 macrophages; 25 uM) | 5 uM Avg Antibacterial Score [1, 4] | 25 uM Avg Antibacterial Score [1, 5] | 5 uM Avg Cell # Score (RAW 264.7 macrophages; [6]) | 25 uM Avg Cell # Score (RAW 264.7 macrophages; [7]) | IC50 ([1]; Salmonella enterica, TYPHIMURIUM, RAW264.7, read-out: SAFIRE IC50) [nM] |
| --- | --- | --- | --- | --- | --- | --- | --- | --- | --- |
| OC(COc1ccccc1C(F)(F)F)CN1CCC(Nc2nccc(C(F)(F)F)n2)C1 (stereo not drawn) [CU112] | 47 | Toxic | 88 | 59 | – | – | – | – | – |
| O=C1CCCN1C1CCN(CC(O)COc2ccc(Cl)c(Cl)c2)CC1 (stereo not drawn) [CU060] | 98 | 83 | 100 | 99 | – | – | – | – | – |
| OC(COc1ccc(F)cc1F)CN1CCC(Nc2ncccn2)CC1 (stereo not drawn) [CU048] | 105 | 95 | 85 | 159 | – | – | – | – | – |
| NCC1CCN(CC(O)COc2ccc(Cl)c(Cl)c2)C1 (stereo not drawn) [CU206] | 25 | 12 | 124 | 87 | – | – | – | – | – |
| NC1CCN(CC(O)COc2ccccc2C(F)(F)F)CC1 (stereo not drawn) [CU233] | – | – | – | – | 47 | 34 | 128 | 104 | – |
| OC(COc1cccc(Cl)c1)CN1CCC(Nc2nccc(C(F)(F)F)n2)CC1 (stereo not drawn) [CU102] | 18 | Toxic | 82 | 51 | – | – | – | – | – |
| OC(COc1ccc(Cl)c(Cl)c1)CN1CCCN(c2nccc(C(F)(F)F)n2)CC1 (stereo not drawn) [CU055] | Toxic | Toxic | 77 | 99 | – | – | – | – | – |
| COC(=O)c1ccc(OCC(O)CN2CCC(Nc3nccc(C(F)(F)F)n3)CC2)cc1 (stereo not drawn) [CU075] | 68 | Toxic | 86 | 56 | – | – | – | – | – |
| NC1CCN(CC(O)COc2ccc(F)c(F)c2)C1 (stereo not drawn) [CU172] | 70 | 57 | 108 | 103 | – | – | – | – | – |
| CN1CCN(CC(O)COc2ccc(Cl)c(Cl)c2)CC1=O (stereo not drawn) [CU220] | 104 | 105 | 116 | 105 | – | – | – | – | – |
| Cc1noc(CN(C)CC(O)COc2ccc(Cl)c(Cl)c2)n1 (stereo not drawn) [CU131] | 101 | 86 | 88 | 80 | – | – | – | – | – |
| OC1CCN(CC(O)COc2ccc(Cl)c(Cl)c2)CC1 (stereo not drawn) [CU164] | 106 | 82 | 98 | 126 | – | – | – | – | – |
| O[C@@H](COc1ccc(Cl)c(Cl)c1)CN1CCC(Nc2nccc(C(F)(F)F)n2)CC1 [CU138] | 7 | Toxic | 85 | 75 | – | – | – | – | – |
| CC1(N)CCN(CC(O)COc2ccc(Cl)c(Cl)c2)CC1 (stereo not drawn) [CU235] | – | – | – | – | 20 | 14 | 125 | 84 | – |
| OC(CNC1CCNCC1)COc1ccc(Cl)cc1Cl (stereo not drawn) [CU201] | 44 | 13 | 109 | 102 | – | – | – | – | – |
| OC(COc1cc(Cl)cc(Cl)c1)CN1CCC(Nc2nccc(C(F)(F)F)n2)C1 (stereo not drawn) [CU088] | 22 | Toxic | 101 | 98 | – | – | – | – | – |
| N[C@@H]1CCN(CC(O)COc2cc(Cl)cc(Cl)c2)C1 (stereo partly drawn) [CU203] | 33 | 9 | 98 | 106 | – | – | – | – | – |
| CCOC(=O)c1cccc(OCC(O)CN2CCC(N)C2)c1 (stereo not drawn) [CU168] | 73 | 55 | 101 | 111 | – | – | – | – | – |
| CC(=O)Nc1cccc(OCC(O)CN2CCC(Nc3nccc(C(F)(F)F)n3)C2)c1 (stereo not drawn) [CU100] | 105 | 110 | 80 | 96 | – | – | – | – | – |
| NC1CCN(CC(O)COc2ccccc2Cl)CC1 (stereo not drawn) [CU189] | 61 | 49 | 107 | 109 | – | – | – | – | – |
| OC(COc1ccc(Cl)cc1)CN1CCC(NC2CC2)C1 (stereo not drawn) [CU140] | 87 | 73 | 122 | 130 | – | – | – | – | – |
| NC1CCN(CC(COc2ccc(Cl)c(Cl)c2)OCc2ccccc2)CC1 (stereo not drawn) [CU241] | – | – | – | – | 30 | Toxic | 110 | 6 | – |
| NC1CCN(CC(O)COc2cccc3ccccc23)CC1 (stereo not drawn) [CU215] | 44 | Toxic | 106 | 17 | – | – | – | – | – |
| OC(COc1ccc(Cl)c(Cl)c1)CN1Cc2ccccc2C1 (stereo not drawn) [CU136] | 102 | 60 | 83 | 63 | – | – | – | – | – |
| CCN(CC(O)COc1ccc(Cl)c(Cl)c1)CC1CCOC1 (stereo not drawn) [CU123] | 98 | 28 | 85 | 84 | – | – | – | – | – |
| OC(COc1ccc(Cl)c(Cl)c1)CN1CCn2c([3F])nnc2C1 (stereo not drawn) [CU157] | 115 | 109 | 109 | 106 | – | – | – | – | – |
| N[C@H]1CCN(C[C@@H](O)COc2ccc(Cl)c(Cl)c2)C1 [CU240] | – | – | – | – | 29 | 10 | 118 | 105 | 9.1 |
| OC(COc1ccccc1C(F)(F)F)CN1CCC(Nc2nccc(C(F)(F)F)n2)CC1 (stereo not drawn) [CU106] | 8 | Toxic | 79 | 44 | – | – | – | – | – |
| OC(COc1ccc(Cl)c(Cl)c1)CN1CCn2cnnc2C1 (stereo not drawn) [CU156] | 110 | 107 | 97 | 124 | – | – | – | – | – |
